# US12527774B2, “Estrogen-related receptor alpha modulators” (LEAD PHARMA HOLDING B.V., priority 2019, dated 2026)
# Target: ERRα ligand binding domain (ERRα-LBD) (Homo sapiens (Human), UniProt P11474)
# Assay: ERRα AlphaScreen Assay
# Type: biochemical
# Settings: disruption of binding of ERRα-LBD protein to biotin-PGC1α-3 co-activator peptide; for IC50: read-out: mean pIC50 (converted)
# From the text: This assay was based on the knowledge that nuclear receptors interact with cofactors in a ligand dependent matter. The sites of interaction have been mapped to LXXLL motifs that are present in the co-activator sequences. Short peptide sequences that contain the LXXLL motif mimic the behavior of full length co-activators.
# The ERRα AlphaScreen Assay described here relies on the interaction of the co-activator peptide with purified bacterial-expressed ERRα ligand binding domain (ERRα-LBD); upon ligand binding the ERRα protein can undergo a conformational change resulting in a loss of co-activator binding.
# Compounds of the present invention were tested for their ability to disrupt binding of ERRα-LBD protein to co-activator peptide using AlphaScreen® Technology (Perkin Elmer). ERRα-LBD protein was expressed in E. coli as a 6×His Small Ubiquitin-like Modifier (SUMO) fusion. Bacterial expressed 6His-SUMO-ERRα-LBD protein was purified using affinity chromatography. All experiments were performed at room temperature in 384-well white non-binding plates (Greiner) using 50 mM Tris-HCl pH 7.5, 100 mM NaCl, 0,1% Pluronic F-127, 0.05% BSA and 5 mM TCEP as the buffer. Final DMSO concentration was 1% in the assay. Compounds were assayed in triplicate and: incubated with 0.81 nM ERRα-LBD protein and 10 μg/mL streptavidin donor beads and 10 μg/mL Ni-chelate acceptor beads for 1 hour at room temperature; followed by a 2-hour incubation with 15 nM biotin-PGC1α-3 peptide (QRRPCSELLKYLTTNDDPP) corresponding to amino acids 202 to 220.
# The AlphaScreen signal was measured using an Envision Xcite plate reader (Perkin Elmer). Data was normalized, and curve fitting analysis was performed in GraphPad Prism 7 using a four-parameter dose-response fit.
# As multiple IC50 values were annotated for the same compound-protein pair, a mean pIC50 for each compound was determined.
# Sequence of ERRα ligand binding domain (ERRα-LBD) (P11474 193-421): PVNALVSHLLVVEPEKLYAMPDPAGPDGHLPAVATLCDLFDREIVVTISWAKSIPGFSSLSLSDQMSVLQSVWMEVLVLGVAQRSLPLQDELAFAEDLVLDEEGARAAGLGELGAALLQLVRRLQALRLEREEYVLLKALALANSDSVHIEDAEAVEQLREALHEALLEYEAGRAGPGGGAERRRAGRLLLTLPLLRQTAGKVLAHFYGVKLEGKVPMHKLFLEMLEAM
SMILES,IC50,mean pIC50
"COc1cc(C2CC(=O)Nc3n[nH]cc32)ccc1COc1ccc(C)cc1C (single isomer, unassigned; (+)) [Example 219, (+)-4-{4-[(2,4-dimethylphenoxy)methyl]-3-methoxyphenyl}-2H,4H,5H,6H,7H-pyrazolo[3,4-b]pyridin-6-one]",0.1 to 1 µM,
"COc1cc(C2CC(=O)Nc3n[nH]nc32)ccc1OCc1ccc(N)cc1C(F)(F)F (centres unmarked) [Example 136, 7-(4-{[4-amino-2-(trifluoromethyl)phenyl]methoxy}-3-methoxyphenyl)-2H,4H,5H,6H, 7H-[1,2,3]triazolo[4,5-b]pyridin-5-one]",,≥ 8
"COc1cc(C2CC(=O)Nc3n[nH]cc32)ccc1COc1ccc(C(F)(F)F)cc1C(F)F (single isomer, unassigned; (+)) [Example 215, (+)-4-(4-{[2-(difluoromethyl)-4-(trifluoromethyl)phenoxy]methyl}-3-methoxyphenyl)-2H,4H,5H,6H,7H-pyrazolo[3,4-b]pyridin-6-one]",0.1 to 1 µM,
"COc1cc(C2CC(=O)Nc3n[nH]cc32)ccc1OCc1cccc(Cl)c1Cl (centres unmarked) [Example 22, 4-{4-[(2,3-dichlorophenyl)methoxy]-3-methoxyphenyl}-2H,4H,5H,6H,7H-pyrazolo[3,4-b]pyridin-6-one]",0.1 to 1 µM,
"O=C1CC(c2ccc(OCc3ccccc3C(F)(F)F)c(Br)c2)c2c[nH]nc2N1 (centres unmarked) [Example 70, 4-(3-bromo-4-{[2-(trifluoromethyl)phenyl]methoxy}phenyl)-2H,4H,5H,6H, 7H-pyrazolo[3,4-b]pyridin-6-one]",0.01 to 0.1 µM,
"COc1cc(C2CC(=O)Nc3n[nH]cc32)ccc1OCc1ccc(NC(C)=O)cc1C(F)(F)F (centres unmarked) [Example 139, N-{4-[(2-methoxy-4-{6-oxo-2H,4H,5H,6H,7H-pyrazolo[3,4-b]pyridin-4-yl}phenoxy)methyl]-3-(trifluoromethyl)phenyl}acetamide]",0.01 to 0.1 µM,
"O=C1CC(c2ccc(OCc3ccccc3C(F)(F)F)c(F)c2)c2c[nH]nc2N1 (centres unmarked) [Example 74, 4-(3-fluoro-4-{[2-(trifluoromethyl)phenyl]methoxy}phenyl)-2H,4H,5H,6H, 7H-pyrazolo[3,4-b]pyridin-6-one]",0.01 to 0.1 µM,
"COc1cc(C2CC(=O)Nc3c[nH]nc32)ccc1OCc1ccc(N)cc1C(F)(F)F (centres unmarked) [Example 137, 7-(4-{[4-amino-2-(trifluoromethyl)phenyl]methoxy}-3-methoxyphenyl)-2H,4H,5H,6H, 7H-pyrazolo[4,3-b]pyridin-5-one]",0.1 to 1 µM,
"COc1cc(C2CC(=O)Nc3n[nH]cc32)ccc1OCc1cccc2c1OCCCO2 (centres unmarked) [Example 51, 4-{4-[(3,4-dihydro-2H-1,5-benzodioxepin-6-yl)methoxy]-3-methoxyphenyl}-2H,4H,5H, 6H, 7H-pyrazolo[3,4-b]pyridin-6-one]",0.1 to 1 µM,
"COc1cc(C2CC(=O)Nc3n[nH]cc32)ccc1OCc1ccc(O)cc1C(F)(F)F (centres unmarked) [Example 154, 4-(4-{[4-hydroxy-2-(trifluoromethyl)phenyl]methoxy}-3-methoxyphenyl)-2H,4H,5H,6H, 7H-pyrazolo[3,4-b]pyridin-6-one]",,≥ 8
"COc1cc(C2CC(=O)Nc3n[nH]cc32)ccc1OCc1ccc(C(N)=O)cc1C(F)(F)F (centres unmarked) [Example 121, 4-(2-methoxy-4-{6-oxo-2H,4H,5H,6H, 7H-pyrazolo[3,4-b]pyridin-4-yl}phenoxymethyl)-3-(trifluoromethyl)benzamide]",0.1 to 1 µM,
"COc1cc(C2CC(=O)Nc3n[nH]cc32)ccc1COc1cc(C(F)F)cc(C(F)(F)F)c1 (centres unmarked) [Example 118, 4-(4-{[3-(difluoromethyl)-5-(trifluoromethyl)phenoxy]methyl}-3-methoxyphenyl)-2H,4H,5H,6H,7H-pyrazolo[3,4-b]pyridin-6-one]",0.1 to 1 µM,
"COc1cc(C2CC(=O)Nc3n[nH]nc32)ccc1OCc1ccc(N)cc1C(F)(F)F (single isomer, unassigned; (-)) [Example 206, (−)-7-(4-{[4-amino-2-(trifluoromethyl)phenyl]methoxy}-3-methoxyphenyl)-2H,4H,5H,6H,7H-[1,2,3]triazolo[4,5-b]pyridin-5-one]",0.01 to 0.1 µM,
"COc1cc(C2CC(=O)Nc3n[nH]cc32)ccc1OCc1ccc(CC(=O)O)cc1C(F)(F)F (centres unmarked) [Example 151, 2-{4-[(2-methoxy-4-{6-oxo-2H,4H,5H,6H, 7H-pyrazolo[3,4-b]pyridin-4-yl}phenoxy)methyl]-3-(trifluoromethyl)phenyl}acetic acid]",0.1 to 1 µM,
"COc1cc(C2CC(=O)Nc3[nH]nnc32)ccc1OCc1ccccc1C(F)(F)F (centres unmarked) [Example 90, 7-(3-methoxy-4-{[2-(trifluoromethyl)phenyl]methoxy}phenyl)-3H,4H,5H,6H, 7H-[1,2,3]triazolo[4,5-b]pyridin-5-one]",,≥ 8
"COc1cc(C2CC(=O)Nc3n[nH]cc32)ccc1COc1ccc(C(F)(F)F)cc1C (centres unmarked) [Example 112, 4-(3-methoxy-4-{[2-methyl-4-(trifluoromethyl)phenoxy]methyl}phenyl)-2H,4H,5H,6H,7H-pyrazolo[3,4-b]pyridin-6-one]",0.01 to 0.1 µM,
"COc1cc(C2CC(=O)Nc3n[nH]cc32)ccc1OCc1ccc(CC(C)(C)O)cc1C(F)(F)F (centres unmarked) [Example 153, 4-(4-{[4-(2-hydroxy-2-methylpropyl)-2-(trifluoromethyl)phenyl]methoxy}-3-methoxyphenyl)-2H,4H,5H,6H,7H-pyrazolo[3,4-b]pyridin-6-one]",0.01 to 0.1 µM,
"COc1cc(Br)c(COc2ccc(-c3cc(=O)[nH]c4n[nH]cc34)cc2OC)cc1OC [Example 184, 4-{4-[(2-bromo-4,5-dimethoxyphenyl)methoxy]-3-methoxyphenyl}-2H,6H, 7H-pyrazolo[3,4-b]pyridin-6-one]",0.1 to 1 µM,
"COc1cc(C2CC(=O)Nc3n[nH]cc32)ccc1OCc1ccc(O)cc1C(F)(F)F (single isomer, unassigned; (+)) [Example 209, (+)-4-(4-{[4-hydroxy-2-(trifluoromethyl)phenyl]methoxy}-3-methoxyphenyl)-2H,4H,5H,6H,7H-pyrazolo[3,4-b]pyridin-6-one]",0.01 to 0.1 µM,
"COc1ccc(COc2ccc(C3CC(=O)Nc4c[nH]nc43)cc2OC)c(C(F)(F)F)c1 (centres unmarked) [Example 92, 7-(3-methoxy-4-{[4-methoxy-2-(trifluoromethyl)phenyl]methoxy}phenyl)-2H,4H,5H,6H,7H-pyrazolo[4,3-b]pyridin-5-one]",0.01 to 0.1 µM,
"COc1ccc([N+](=O)[O-])cc1COc1ccc(C2CC(=O)Nc3n[nH]cc32)cc1OC (centres unmarked) [Example 25, 4-{3-methoxy-4-[(2-methoxy-5-nitrophenyl)methoxy]phenyl}-2H,4H,5H,6H,7H-pyrazolo[3,4-b]pyridin-6-one]",0.1 to 1 µM,
"O=C1CC(c2ccc(COc3ccccc3C(F)(F)F)c(OC(F)(F)F)c2)c2c[nH]nc2N1 (centres unmarked) [Example 108, 4-[3-(trifluoromethoxy)-4-{[2-(trifluoromethyl)phenoxy]methyl}phenyl]-2H,4H,5H,6H,7H-pyrazolo[3,4-b]pyridin-6-one]",0.01 to 0.1 µM,
"COc1cc(C2CC(=O)Nc3n[nH]cc32)ccc1OCc1cccc(C(F)(F)F)c1F (centres unmarked) [Example 28, 4-(4-{[2-fluoro-3-(trifluoromethyl)phenyl]methoxy}-3-methoxyphenyl)-2H,4H,5H,6H,7H-pyrazolo[3,4-b]pyridin-6-one]",0.1 to 1 µM,
"COc1cc(C2CC(=O)Nc3n[nH]cc32)ccc1COc1ccc(C(F)F)cc1C(F)F (centres unmarked) [Example 116, 4-(4-{[2,4-bis(difluoromethyl)phenoxy]methyl}-3-methoxyphenyl)-2H,4H,5H,6H,7H-pyrazolo[3,4-b]pyridin-6-one]",0.01 to 0.1 µM,
"COc1cc(C2CC(=O)Nc3n[nH]cc32)ccc1OCc1cccc(Br)c1 (centres unmarked) [Example 11, 4-{4-[(3-bromophenyl)methoxy]-3-methoxyphenyl}-2H,4H,5H,6H, 7H-pyrazolo[3,4-b]pyridin-6-one]",0.1 to 1 µM,
"COc1cc(C2CC(=O)Nc3n[nH]cc32)ccc1OCc1ccccc1Cl (centres unmarked) [Example 2, 4-{4-[(2-chlorophenyl)methoxy]-3-methoxyphenyl}-2H,4H,5H,6H,7H-pyrazolo[3,4-b]pyridin-6-one]",0.01 to 0.1 µM,
"COc1cc(C2CC(=O)Nc3n[nH]c(F)c32)ccc1OCc1ccccc1C(F)(F)F (centres unmarked) [Example 95, 3-fluoro-4-(3-methoxy-4-{[2-(trifluoromethyl)phenyl]methoxy}phenyl)-2H,4H,5H,6H, 7H-pyrazolo[3,4-b]pyridin-6-one]",0.1 to 1 µM,
"COc1cc(C2CC(=O)Nc3n[nH]cc32)ccc1OCc1ccc(C(C)=O)cc1C(F)(F)F (single isomer, unassigned; (+)) [Example 199, (+)-4-(4-{[4-acetyl-2-(trifluoromethyl)phenyl]methoxy}-3-methoxyphenyl)-2H,4H,5H,6H,7H-pyrazolo[3,4-b]pyridin-6-one]",0.1 to 1 µM,
"O=C1CC(c2ccc(OCc3ccccc3C(F)(F)F)cc2)c2c[nH]nc2N1 (centres unmarked) [Example 59, 4-(4-{[2-(trifluoromethyl)phenyl]methoxy}phenyl)-2H,4H,5H,6H,7H-pyrazolo[3,4-b]pyridin-6-one]",0.01 to 0.1 µM,
